Values quoted from earlier work, collected in publication PMC8687831, “α-Amylase Inhibitory Activity of Catunaregam spinosa (Thunb.) Tirveng.: In Vitro and In Silico Studies” (BioMed Research International, 2021).

Test system: streptozotocin-induced diabetic rats
Set-up: method as in PMID 21143769

For CC[C@H](CC[C@@H](C)[C@H]1CC[C@H]2[C@@H]3CC=C4C[C@@H](O)CC[C@]4(C)[C@H]3CC[C@]12C)C(C)C [β-Sitosterol, β-sitosterol], the “effective to lower the blood glucose level” value is given as 78-100%.
